Data taken from PubChem BioAssay AID248 (DTP/NCI, 2004).
Where “and” joins values, the source holds several entries; their conditions need not be identical. Equal entries are not always repeated. Inconclusive results and toxic doses are left out.

System: L1210 leukemia ip in BDF1 mice, survival T/C
Assay: NCI In Vivo Anticancer Drug Screen. Data for tumor model L1210 Leukemia (intraperitoneal) in B6D2F1 (BDF1) mice
Details: endpoint: mean survival time, higher = longer survival
Summary of the method: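 Tumor cells were implanted, animals were treated, and survival was followed. The result divides the treated measurement by the vehicle-control measurement.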

[1] = dose: 200.0 mg/kg/injection, schedule: Q01DX001 (ip), vehicle: Klucel (hydroxypropylcellulose) (HPC)
[2] = dose: 100.0 mg/kg/injection, schedule: Q04DX003 (ip), vehicle: Klucel (hydroxypropylcellulose) (HPC)
[3] = dose: 200.0 mg/kg/injection, schedule: Q04DX003 (ip), vehicle: Klucel (hydroxypropylcellulose) (HPC)
[4] = dose: 400.0 mg/kg/injection, schedule: Q04DX003 (ip), vehicle: Klucel (hydroxypropylcellulose) (HPC)
[5] = dose: 100.0 mg/kg/injection, schedule: Q01DX001 (ip), vehicle: other
[6] = dose: 200.0 mg/kg/injection, schedule: Q01DX001 (ip), vehicle: other
[7] = dose: 400.0 mg/kg/injection, schedule: Q01DX001 (ip), vehicle: other
[8] = dose: 100.0 mg/kg/injection, schedule: Q01DX001 (ip), vehicle: Klucel (hydroxypropylcellulose) (HPC)
[9] = dose: 400.0 mg/kg/injection, schedule: Q01DX001 (ip), vehicle: Klucel (hydroxypropylcellulose) (HPC)
[10] = dose: 100.0 mg/kg/injection, schedule: Q01DX009 (ip), vehicle: saline with Tween-80
[11] = dose: 200.0 mg/kg/injection, schedule: Q01DX009 (ip), vehicle: saline with Tween-80
[12] = dose: 400.0 mg/kg/injection, schedule: Q01DX009 (ip), vehicle: saline with Tween-80
[13] = dose: 100.0 mg/kg/injection, schedule: Q04DX003 (ip), vehicle: saline with Tween-80
[14] = dose: 200.0 mg/kg/injection, schedule: Q04DX003 (ip), vehicle: saline with Tween-80
[15] = dose: 400.0 mg/kg/injection, schedule: Q04DX003 (ip), vehicle: saline with Tween-80
[16] = dose: 100.0 mg/kg/injection, schedule: Q04DX002 (ip), vehicle: Klucel (hydroxypropylcellulose) (HPC)
[17] = dose: 50.0 mg/kg/injection, schedule: Q04DX003 (ip), vehicle: saline with Tween-80

With `CN(N=O)C(=O)NCCCl` the T/C (dose: 0.36 mg/kg/injection, schedule: Q01DX Z (ip), vehicle: carboxymethylcellulose (CMC)) was 104 % of control, the T/C (dose: 0.78 mg/kg/injection, schedule: Q01DX Z (ip), vehicle: carboxymethylcellulose (CMC)) was 95 % of control and the T/C (dose: 1.56 mg/kg/injection, schedule: Q01DX Z (ip), vehicle: carboxymethylcellulose (CMC)) was 98 % of control. For the same compound, the T/C (dose: 3.12 mg/kg/injection, schedule: Q01DX Z (ip), vehicle: carboxymethylcellulose (CMC)) was 102 % of control, the T/C (dose: 6.25 mg/kg/injection, schedule: Q01DX Z (ip), vehicle: carboxymethylcellulose (CMC)) was 102 % of control and the T/C (dose: 12.5 mg/kg/injection, schedule: Q01DX001 (ip), vehicle: Klucel (hydroxypropylcellulose) (HPC)) was 103 % of control. For the same compound, the T/C (dose: 12.5 mg/kg/injection, schedule: Q01DX Z (ip), vehicle: carboxymethylcellulose (CMC)) was 101 % of control, the T/C (dose: 25.0 mg/kg/injection, schedule: Q01DX001 (ip), vehicle: Klucel (hydroxypropylcellulose) (HPC)) was 103 % of control and the T/C (dose: 25.0 mg/kg/injection, schedule: Q01DX Z (ip), vehicle: carboxymethylcellulose (CMC)) was 104 % of control. The T/C (dose: 75.0 mg/kg/injection, schedule: Q01DX Z (ip), vehicle: carboxymethylcellulose (CMC)) was 119 % of control and the T/C [1] was 118 % of control.

`N#C/C(=C\c1ccncc1)c1cccc2ccccc12` was tested, and the T/C [2] was 114 % of control, the T/C [3] was 96 % of control and the T/C [4] was 97 % of control.

In the case of `CCC(C)COC(=O)c1ccccc1-c1ccccc1C(=O)OCC(C)CC` (stereo not given), the T/C [5] is reported as 96 % of control, the T/C [6] is reported as 98 % of control and the T/C [7] is reported as 96 % of control.

For `COC(=O)C(CSC(=O)c1ccccc1)NC(=O)c1ccccc1` (stereo not given), the T/C (dose: 25.0 mg/kg/injection, schedule: Q04DX003 (ip), vehicle: Klucel (hydroxypropylcellulose) (HPC)) was 100 % of control, the T/C (dose: 50.0 mg/kg/injection, schedule: Q04DX003 (ip), vehicle: Klucel (hydroxypropylcellulose) (HPC)) was 110 % of control and the T/C [8] was 97 % of control. The T/C [2] was 100 % of control, the T/C [1] was 100 % of control and the T/C [9] was 101 % of control.

For `COc1ccc(/C=C/C(=O)c2ccc3c(c2)OCO3)cc1OC`, the T/C [10] was 101 % of control, the T/C [11] was 94 % of control and the T/C [12] was 95 % of control.

`CCOC(=S)Nc1ccccc1[N+](=O)[O-]` was tested, and the T/C (dose: 100.0 mg/kg/injection, schedule: Q04DX002 (ip), vehicle: gum acacia) was 102 % of control, the T/C (dose: 200.0 mg/kg/injection, schedule: Q04DX002 (ip), vehicle: gum acacia) was 105 % of control and the T/C (dose: 400.0 mg/kg/injection, schedule: Q04DX002 (ip), vehicle: gum acacia) was 102 % of control.

`CN(Cc1cnc2cc(N)[nH]c(=O)c2n1)c1ccc(C(=O)NC(CCC(=O)O)C(=O)O)cc1` (stereo not given) was tested, and the T/C (dose: 100.0 mg/kg/injection, schedule: Q04DX002 (ip), vehicle: water) was 94 % of control, the T/C (dose: 200.0 mg/kg/injection, schedule: Q04DX002 (ip), vehicle: water) was 99 % of control and the T/C (dose: 400.0 mg/kg/injection, schedule: Q04DX002 (ip), vehicle: water) was 118 % of control.

`CC(=O)Oc1cc2ccccc2cc1C(C)C` was tested, and the T/C [10] was 98 % of control, the T/C [13] was 103 % of control and the T/C [11] was 98 % of control. The T/C [14] was 95 % of control, the T/C [12] was 88 % of control and the T/C [15] was 90 % of control.

For `CCn1c2ccccc2c2cc3c(cc21)C(C)=NCC3`, the T/C (dose: 25.0 mg/kg/injection, schedule: Q04DX002 (ip), vehicle: Klucel (hydroxypropylcellulose) (HPC)) was 112 % of control, the T/C (dose: 50.0 mg/kg/injection, schedule: Q04DX002 (ip), vehicle: Klucel (hydroxypropylcellulose) (HPC)) was 102 % of control and the T/C [16] was 102 % of control.

With `CCC(=O)OCC1OC(n2cnc3c(=S)nc(N)[nH]c32)C(OC(=O)CC)C1OC(=O)CC` (stereo not given) the T/C (dose: 0.8 mg/kg/injection, schedule: Q01DX Z (ip), vehicle: carboxymethylcellulose (CMC)) was 106 % of control, the T/C (dose: 1.3 mg/kg/injection, schedule: Q01DX Z (ip), vehicle: carboxymethylcellulose (CMC)) was 110 % of control and the T/C (dose: 2.0 mg/kg/injection, schedule: Q01DX Z (ip), vehicle: carboxymethylcellulose (CMC)) was 120 % of control. For the same compound, the T/C (dose: 8.0 mg/kg/injection, schedule: Q01DX Z (ip), vehicle: carboxymethylcellulose (CMC)) was 169 % of control, the T/C (dose: 12.0 mg/kg/injection, schedule: Q01DX Z (ip), vehicle: carboxymethylcellulose (CMC)) was 151 % of control and 154 % of control and the T/C (dose: 18.0 mg/kg/injection, schedule: Q01DX Z (ip), vehicle: carboxymethylcellulose (CMC)) was 101 % of control. The T/C (dose: 27.0 mg/kg/injection, schedule: Q01DX Z (ip), vehicle: carboxymethylcellulose (CMC)) was 156 % of control and the T/C (dose: 40.0 mg/kg/injection, schedule: Q01DX Z (ip), vehicle: carboxymethylcellulose (CMC)) was 151 % of control.

`O=C1CC(=O)NC(=S)N1` was tested, and the T/C [13] was 101 % of control, the T/C [14] was 93 % of control and the T/C [15] was 93 % of control.

With `Cc1ccc(C(C#N)c2ccc(N)cc2)cc1` (stereo not given) the T/C (dose: 50.0 mg/kg/injection, schedule: Q01DX001 (ip), vehicle: saline) was 98 % of control, the T/C (dose: 100.0 mg/kg/injection, schedule: Q01DX001 (ip), vehicle: saline) was 101 % of control and the T/C (dose: 200.0 mg/kg/injection, schedule: Q01DX001 (ip), vehicle: saline) was 101 % of control.

`O=C(NCCBr)NC1CC1c1ccccc1` (stereo not given) was tested, and the T/C (dose: 20.0 mg/kg/injection, schedule: Q04DX003 (ip), vehicle: Klucel (hydroxypropylcellulose) (HPC)) was 117 % of control, the T/C (dose: 40.0 mg/kg/injection, schedule: Q04DX003 (ip), vehicle: Klucel (hydroxypropylcellulose) (HPC)) was 101 % of control and the T/C (dose: 80.0 mg/kg/injection, schedule: Q04DX003 (ip), vehicle: Klucel (hydroxypropylcellulose) (HPC)) was 93 % of control. For the same compound, the T/C [2] was 118 % of control.

In the case of `O=C1C2CC3C=CC1C(C3)C2` (stereo not given) (tested in a mixture with another compound), the T/C [8] is reported as 104 % of control, the T/C [1] is reported as 103 % of control and the T/C [9] is reported as 97 % of control.

In the case of `Cc1cccc(N)n1`, the T/C (dose: 25.0 mg/kg/injection, schedule: Q04DX002 (ip), vehicle: saline) is reported as 89 % of control and the T/C (dose: 50.0 mg/kg/injection, schedule: Q04DX002 (ip), vehicle: saline) is reported as 92 % of control.

For `Clc1c2ccccc2cc2ccccc12`, the T/C [16] was 92 % of control, the T/C (dose: 200.0 mg/kg/injection, schedule: Q04DX002 (ip), vehicle: Klucel (hydroxypropylcellulose) (HPC)) was 100 % of control and the T/C (dose: 400.0 mg/kg/injection, schedule: Q04DX002 (ip), vehicle: Klucel (hydroxypropylcellulose) (HPC)) was 107 % of control.

With `NC(=O)Cc1cc(=O)[nH]c(=O)[nH]1` the T/C (dose: 50.0 mg/kg/injection, schedule: Q01DX009 (ip), vehicle: saline) was 107 % of control, the T/C [17] was 96 % of control and the T/C (dose: 100.0 mg/kg/injection, schedule: Q01DX009 (ip), vehicle: saline) was 102 % of control. For the same compound, the T/C [13] was 97 % of control, the T/C (dose: 200.0 mg/kg/injection, schedule: Q01DX009 (ip), vehicle: saline) was 100 % of control and the T/C [14] was 94 % of control. The T/C (dose: 400.0 mg/kg/injection, schedule: Q01DX009 (ip), vehicle: saline) was 97 % of control and the T/C [15] was 91 % of control.

In the case of `CCOC(=O)NC(C)(CC)c1ccccc1` (stereo not given), the T/C [5] is reported as 105 % of control, the T/C [6] is reported as 109 % of control and the T/C [7] is reported as 117 % of control.

With `CCC(C)(O)C#CC#CC(C)(O)CC` (stereo not given) the T/C (dose: 6.25 mg/kg/injection, schedule: Q01DX009 (ip), vehicle: saline with Tween-80) was 93 % of control, the T/C (dose: 12.5 mg/kg/injection, schedule: Q01DX009 (ip), vehicle: saline with Tween-80) was 100 % of control and the T/C (dose: 12.5 mg/kg/injection, schedule: Q04DX003 (ip), vehicle: saline with Tween-80) was 101 % of control. The T/C (dose: 25.0 mg/kg/injection, schedule: Q01DX009 (ip), vehicle: saline with Tween-80) was 96 % of control, the T/C (dose: 25.0 mg/kg/injection, schedule: Q04DX003 (ip), vehicle: saline with Tween-80) was 97 % of control and the T/C [17] was 87 % of control. The T/C (dose: 100.0 mg/kg/injection, schedule: Q01DX009 (ip), vehicle: Klucel (hydroxypropylcellulose) (HPC)) was 93 % of control, the T/C [2] was 103 % of control and the T/C (dose: 200.0 mg/kg/injection, schedule: Q01DX009 (ip), vehicle: Klucel (hydroxypropylcellulose) (HPC)) was 101 % of control. For the same compound, the T/C [3] was 106 % of control, the T/C (dose: 400.0 mg/kg/injection, schedule: Q01DX009 (ip), vehicle: Klucel (hydroxypropylcellulose) (HPC)) was 102 % of control and the T/C [4] was 104 % of control.
